Experimental data as given in patent US20260234157A1, “COMPOUND AND METHOD FOR TARGETED DEGRADATION OF ANDROGEN RECEPTOR” (Gan & Lee Pharmaceuticals Co., Ltd., priority 2023, published 2026).
Numbering of substitutions follows the chain as printed. Like-named read-outs stand apart in the source and are kept apart here.

Columns and labels:
Format in all cases: cell-based
LNCaP FGC cells = assay: Inhibition of proliferation of LNCaP cells (WST-8); details: Homo sapiens, LNCaP, 96 h
Method: The cells were cultured in a cell culture incubator with 5% CO2 at 37° C. overnight. […] On the sixth day, 96 well plates were taken out, and 20 μL of WST-8 (Beytime, C0040) reagent was added to each well.

AR protein [1] = biological target: T1, AR protein (Homo sapiens, UniProt P10275, T878A); assay: Degradation of AR protein in LNCaP cells (Western blot); details: for inhibition at 0.01 µM: read-out: Degradation rates of the AR protein in LNCaP cells, 10 nM (%); for inhibition at 0.1 µM: read-out: Degradation rates of the AR protein in LNCaP cells, 100 nM (%)
T1 construct: degradation activity of the compounds disclosed in the present disclosure on AR protein in LNCaP cells; host or cells: LNCaP FGC
T1 sequence (P10275 1-920 T878A): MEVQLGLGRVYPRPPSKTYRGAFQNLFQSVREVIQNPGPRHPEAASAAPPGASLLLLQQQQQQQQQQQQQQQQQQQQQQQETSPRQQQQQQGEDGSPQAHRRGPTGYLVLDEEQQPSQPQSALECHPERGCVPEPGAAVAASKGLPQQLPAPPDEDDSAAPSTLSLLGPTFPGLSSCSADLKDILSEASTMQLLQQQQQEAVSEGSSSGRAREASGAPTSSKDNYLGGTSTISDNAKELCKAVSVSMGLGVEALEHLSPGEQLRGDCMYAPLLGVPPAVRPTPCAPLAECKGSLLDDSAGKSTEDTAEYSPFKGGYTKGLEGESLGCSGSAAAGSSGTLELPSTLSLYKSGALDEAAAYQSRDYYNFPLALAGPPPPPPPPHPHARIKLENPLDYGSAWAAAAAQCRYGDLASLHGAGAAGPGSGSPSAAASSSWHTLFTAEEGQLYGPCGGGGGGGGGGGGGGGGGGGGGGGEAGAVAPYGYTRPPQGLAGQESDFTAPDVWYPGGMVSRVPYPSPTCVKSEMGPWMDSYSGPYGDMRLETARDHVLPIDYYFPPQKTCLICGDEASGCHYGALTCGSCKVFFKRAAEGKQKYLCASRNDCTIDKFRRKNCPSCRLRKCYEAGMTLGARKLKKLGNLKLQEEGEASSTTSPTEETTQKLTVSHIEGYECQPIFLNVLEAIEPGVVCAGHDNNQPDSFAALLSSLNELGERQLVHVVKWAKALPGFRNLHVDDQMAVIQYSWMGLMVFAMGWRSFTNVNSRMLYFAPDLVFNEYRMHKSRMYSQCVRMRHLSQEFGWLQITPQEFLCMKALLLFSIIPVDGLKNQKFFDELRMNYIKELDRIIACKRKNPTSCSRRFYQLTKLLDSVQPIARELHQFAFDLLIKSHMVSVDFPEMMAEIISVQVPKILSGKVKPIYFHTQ
Summary of the method: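 AR assessed by SDS-PAGE/Western blot with infrared imaging; band greyscale normalised to GAPDH gave percent degradation.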

VCaP cells = assay: Inhibition of proliferation of VCaP cells (WST-8); details: Homo sapiens, read-out: IC50 for inhibiting the proliferation of VCaP cells
Method: The inhibitory activity of the compounds disclosed in the present disclosure on the proliferation of VCaP cells
On the first day of the experiment, […] were inoculated in 96 well plates at a density of 15000 cells per well using DMEM medium containing 10% fetal bovine serum, with 100 μL of cell suspension per well. The cells were cultured in a cell culture incubator with 5% CO2 at 37° C. overnight. […] On the ninth day, 96 well plates were taken out, and 20 μL of WST-8 (Beytime, C0040) reagent was added to each well.

AR protein [2] = biological target: T2, AR protein (Homo sapiens, UniProt P10275); assay: Degradation of AR protein in VCaP cells (Western blot); details: 8 hours; for inhibition at 0.01 µM: compound at 10 nM, read-out: Degradation rate of the AR protein in VCaP cells, 10 nM (%); for inhibition at 0.1 µM: compound at 100 nM, read-out: Degradation rate of the AR protein in VCaP cells, 100 nM (%)
T2 construct: degradation activity of the compounds disclosed in the present disclosure on AR protein in VCaP cells; host or cells: VCaP
T2 sequence (P10275 1-920): T1 sequence (P10275 1-920 T878A) with A878T
Summary of the method: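 VCaP cells treated with compound alongside solvent controls for 8 h, then lysed in RIPA and protein quantified by BCA. AR detected by SDS-PAGE/Western blot with infrared imaging. Degradation rate calculated from band grayscale, with GAPDH as internal reference.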

[3] = LNCaP FGC cells, 96 hours, WST-8 absorbance at 450 nm, read-out: IC50 for inhibiting the proliferation of LNCaP cells
[4] = LNCaP cells, compound 10 nM, 8 hours, Western blot grayscale, GAPDH internal reference
[5] = LNCaP cells, compound 100 nM, 8 hours, Western blot grayscale, GAPDH internal reference
[6] = VCaP cells, 168 hours, WST-8 absorbance at 450 nm
[7] = read-out: IC50 for inhibiting the proliferation of LNCaP cells, LNCaP FGC cells, 96 hours, WST-8 absorbance at 450 nm

Structure (SMILES)	IC50 (LNCaP FGC cells; [3])	inhibition at 0.01 µM (AR protein [1]; [4])	inhibition at 0.1 µM (AR protein [1]; [5])	IC50 (VCaP cells; [6])	inhibition at 0.01 µM (AR protein [2])	inhibition at 0.1 µM (AR protein [2])	IC50 (LNCaP FGC cells; [7])	inhibition at 0.01 µM (AR protein [1]; LNCaP, 8 h)	inhibition at 0.1 µM (AR protein [1]; LNCaP, 8 h)	IC50 (VCaP cells; VCaP, 168 h)	IC50 (LNCaP FGC cells; read-out: IC50 for inhibiting the proliferation of LNCaP cells)
N#Cc1ccc(O[C@H]2CC[C@H](NC(=O)c3ccc(N4CCC(CO)(CN5CCC6(CC5)COc5c6ccc6c5CN(C5CCC(=O)NC5=O)C6=O)CC4)nn3)CC2)cc1Cl (stereo partly drawn) [Compound 257]	14 nM	36%	-41%	1.5 nM	67%	75%					
N#Cc1ccc(O[C@H]2CC[C@H](NC(=O)c3ccc(N4CCC(N5CCC6(CCc7cc8c(cc7O6)C(=O)N(C6CCC(=O)NC6=O)C8=O)CC5)CC4)nn3)CC2)cc1Cl (stereo partly drawn) [Compound 26]					48%	56%	1200 nM	61%	56%	750 nM	
N#Cc1ccc(O[C@H]2CC[C@H](NC(=O)c3ccc(N4CC(N5CCC6(CC5)COc5cc7c(cc56)C(=O)N(C5CCC(=O)NC5=O)C7=O)C4)nn3)CC2)cc1Cl (stereo partly drawn) [Compound 49]					24%	61%	2810 nM	24%	36%	4000 nM	
N#Cc1ccc(O[C@H]2CC[C@H](NC(=O)c3ccc(N4CCC(C#N)(CN5CCC6(CC5)COc5c6ccc6c5C(=O)N(C5CCC(=O)NC5=O)C6=O)CC4)nn3)CC2)cc1C(F)(F)F (stereo partly drawn) [Compound 228]	2290 nM	30%	56%	470 nM	-9%	18%					
N#Cc1ccc(O[C@H]2CC[C@H](NC(=O)c3ccc(N4CCC5(CC4)CC(N4CCC6(CC4)COc4cc7c(cc4C6)C(=O)N(C4CCC(=O)NC4=O)C7=O)C5)nn3)CC2)cc1Cl (stereo partly drawn) [Compound 71]	500 nM	37%	71%	160 nM	54%	66%					
CCC1(CN2CCC3(CC2)COc2c3ccc3c2CN(C2CCC(=O)NC2=O)C3=O)CCN(c2ccc(C(=O)N[C@H]3C(C)(C)[C@H](Oc4ccc(C#N)c(OC)c4)C3(C)C)cc2)CC1 (stereo partly drawn) [Compound 294]	77 nM	54%	57%	2 nM	13%	62%					
N#Cc1ccc(O[C@H]2CC[C@H](NC(=O)c3ccc(N4CCC(CC5CC5)(CN5CCC6(CC5)COc5c6ccc6c5CN(C5CCC(=O)NC5=O)C6=O)CC4)nn3)CC2)cc1Cl (stereo partly drawn) [Compound 211]		45%	28%		-4%	46%				2.5 nM	55 nM
CCC1(CN2CCC3(CC2)COc2c3ccc3c2C(=O)N(C2CCC(=O)NC2=O)C3=O)CCN(c2ccc(C(=O)N[C@H]3CC[C@H](Oc4ccc(C#N)c(OC)c4)CC3)nn2)CC1 (stereo partly drawn) [Compound 250]	> 90000 nM	-14%	67%	160 nM	15%	61%					
N#Cc1ccc(O[C@H]2CC[C@H](NC(=O)c3ccc(C#CC4CCC(N5CCC6(CC5)COc5c6ccc6c5CN(C5CCC(=O)NC5=O)C6=O)CC4)nc3)CC2)cc1Cl (stereo partly drawn) [Compound 235]	840 nM	39%	36%	2 nM	35%	76%					
N#Cc1ccc(O[C@H]2CC[C@H](NC(=O)c3ccc(N4CCC5(CCC(N6CCC7(CC6)COc6cc8c(cc6C7)C(=O)N(C6CCC(=O)NC6=O)C8=O)CC5)C4)nn3)CC2)cc1Cl (stereo partly drawn) [Compound 62]	820 nM	46%	76%	520 nM	66%	74%					
N#Cc1ccc(O[C@H]2CC[C@H](NC(=O)c3ccc(N4CCC5(CC4)CC(F)(F)c4cc6c(cc4O5)C(=O)N(C4CCC(=O)NC4=O)C6=O)nn3)CC2)cc1Cl (stereo partly drawn) [Compound 36]	3200 nM	18%	22%	7070 nM	17%	19%					
CCOC1(CN2CCC3(CC2)COc2c3ccc3c2C(=O)N(C2CCC(=O)NC2=O)C3=O)CCN(c2ccc(C(=O)N[C@H]3CC[C@H](Oc4ccc(C#N)c(C(F)(F)F)c4)CC3)nn2)CC1 (stereo partly drawn) [Compound 242]	640 nM	-18%	11%	94 nM	-5%	15%					
COc1cc(O[C@H]2C(C)(C)[C@H](NC(=O)c3ccc(N4CCC(C)(CN5CCC6(CCc7cc8c(cc7O6)CN(C6CCC(=O)NC6=O)C8=O)CC5)CC4)cc3)C2(C)C)ccc1C#N (stereo partly drawn) [Compound 281]	2140 nM	20%	56%	4 nM	-11%	60%					
CC1(CN2CCC3(CC2)COc2c3ccc3c2CN(C2CCC(=O)NC2=O)C3=O)CCN(c2ccc(C(=O)N[C@H]3CC[C@H](Oc4ccc(C#N)c(Cl)c4)CC3)nc2)CC1 (stereo partly drawn) [Compound 259]	73 nM	-16%	44%	1.2 nM	33%	78%					
